These results are taken from ChEMBL document CHEMBL5385901, “Drug repurposing of propafenone to discover novel anti-tumor agents by impairing homologous recombination to delay DNA damage recovery of rare disease conjunctival melanoma” (Eur J Med Chem, 2023).

Active and inactive are the calls of the source. The rule behind the calls is not given here.

Data set [1] can be described thus: Antiproliferative activity against human HL7702 cells assessed as cell growth inhibition incubated for 72 hrs by CCK8 assay. The data set is classed as toxicity, cell-based. The note with it: HL7702 (L02) cells.
The nature of data set [2]: Antiproliferative activity against human CM2005.1 cells assessed as cell growth inhibition incubated for 72 hrs by CCK8 assay. The format is functional, cell-based. The note with it: CM2005.1, 72 h.
For data set [3], the target named is T1, Double-strand break repair protein MRE11 (Homo sapiens, UniProt P49959).
T1 sequence (P49959 whole entry): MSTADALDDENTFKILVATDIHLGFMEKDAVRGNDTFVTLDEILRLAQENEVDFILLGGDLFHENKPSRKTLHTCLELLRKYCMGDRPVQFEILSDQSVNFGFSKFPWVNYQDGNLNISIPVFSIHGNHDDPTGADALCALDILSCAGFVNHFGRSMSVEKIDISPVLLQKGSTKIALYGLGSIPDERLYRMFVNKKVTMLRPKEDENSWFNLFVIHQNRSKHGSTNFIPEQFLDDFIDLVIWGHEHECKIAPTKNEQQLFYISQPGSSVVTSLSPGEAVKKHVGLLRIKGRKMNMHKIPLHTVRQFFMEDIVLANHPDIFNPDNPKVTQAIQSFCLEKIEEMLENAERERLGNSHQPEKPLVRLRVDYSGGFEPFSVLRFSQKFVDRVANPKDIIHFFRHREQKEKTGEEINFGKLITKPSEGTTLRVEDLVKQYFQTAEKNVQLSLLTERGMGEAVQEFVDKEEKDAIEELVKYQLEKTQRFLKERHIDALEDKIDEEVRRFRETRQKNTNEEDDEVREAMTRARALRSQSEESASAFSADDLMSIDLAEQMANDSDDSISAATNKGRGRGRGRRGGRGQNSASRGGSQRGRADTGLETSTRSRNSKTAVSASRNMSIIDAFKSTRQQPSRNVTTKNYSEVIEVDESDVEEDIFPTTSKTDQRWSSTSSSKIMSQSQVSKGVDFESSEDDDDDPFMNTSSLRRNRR
Put plainly: Binding affinity to his-tagged recombinant human MRE11 assessed as dissociation constant by MST assay.

Data set [4] deals with CRMM-2. The data set can be described thus: Antiproliferative activity against human CRMM-2 cells assessed as cell growth inhibition incubated for 72 hrs by CCK8 assay. The format is functional, cell-based. The note with it: CRMM-2, 72 h.
A short description of data set [5]: Inhibition of homologous recombination in human CRMM-1 cells at 10 uM incubated for 12 hrs by real-time PCR analysis relative to control. The format is functional.
For data set [6], the system named is CRMM-1. The data set can be described thus: Induction of apoptosis in human CRMM-1 cells at 3 uM measured after 48 hrs by DAPI/Annexin-V-PE staining based flow cytometry relative to control. The data set is classed as functional.
For data set [7], the system named is CRMM-1. Put plainly: Inhibition of cell migration in human CRMM-1 cells assessed as migration rate at 0.3 uM measured after 72 hrs by wound healing assay (reference value: 70 %). The data set is classed as functional. More on the design: scale not given: the % may be the effect or the level left.
Data set [8] is described as follows: Antiproliferative activity against human CM-AS16 cells assessed as cell growth inhibition incubated for 72 hrs by CCK8 assay. The format is functional, cell-based. The conditions noted are these: CM-AS16, 72 h.
Data set [9] can be described thus: Antiproliferative activity against human PIG1 cells assessed as cell growth inhibition incubated for 72 hrs by CCK8 assay. The data set is classed as toxicity, cell-based.
Data set [10] relates to CRMM-1. The data set can be described thus: Antiproliferative activity against human CRMM-1 cells assessed as cell growth inhibition incubated for 72 hrs by CCK8 assay. The conditions noted are these: CRMM-1, 72 h. The data set is classed as functional, cell-based.
A short description of data set [11]: Cytotoxicity against human CM-AS16 cells assessed as cell growth inhibition incubated for 72 hrs by CCK8 assay. The format is functional, cell-based. The conditions noted are these: CM-AS16, 72 h.
Data set [12] deals with CRMM-1. Put plainly: Cytotoxicity against human CRMM-1 cells assessed as cell growth inhibition incubated for 72 hrs by CCK8 assay. The data set is classed as functional, cell-based. The conditions noted are these: CRMM-1, 72 h.
In data set [13] the test system is CRMM-1. Put plainly: Inhibition of cell migration in human CRMM-1 cells assessed as migration rate at 3 uM measured after 72 hrs by wound healing assay (reference value: 70 %). The data set is classed as functional. More on the design: scale not given: the % may be the effect or the level left.
A short description of data set [14]: Cytotoxicity against human CM2005.1 cells assessed as cell growth inhibition incubated for 72 hrs by CCK8 assay. The data set is classed as functional, cell-based. The conditions noted are these: CM2005.1, 72 h.
Data set [15] concerns CM-AS16. The data set can be described thus: Effect on DNA repair genes in human CM-AS16 cells harboring BRAF mutation at 20 uM by GO enrichment analysis. The data set is classed as functional, cell-based.
The subject of data set [16] is CM-AS16. Put plainly: Effect on Fanconi anemia pathway in human CM-AS16 cells harboring BRAF mutation at 20 uM by KEGG analysis. The format is functional, cell-based.
For data set [17], the system named is CM-AS16. Put plainly: Effect on DNA integrity checkpoint genes in human CM-AS16 cells harboring BRAF mutation at 20 uM by GO enrichment analysis. The format is functional, cell-based.
Data set [18] can be described thus: Cytotoxicity against human PIG1 cells at 20 uM incubated for 72 hrs by CCK8 assay relative to control. The format is toxicity, cell-based. The conditions noted are these: read-out: INH.
Data set [19] has as its system CRMM-1. The data set can be described thus: Induction of apoptosis in human CRMM-1 cells at 0.3 to 3 uM measured after 48 hrs by DAPI/Annexin-V-PE staining based flow cytometry. The format is functional, cell-based. The note with it: dose 0.3-3 µM.
Data set [20] concerns CRMM-2. Put plainly: Cytotoxicity against human CRMM-2 cells assessed as cell growth inhibition incubated for 72 hrs by CCK8 assay. The format is functional, cell-based. The conditions noted are these: CRMM-2, 72 h.
For data set [21], the system named is CRMM-1. The data set can be described thus: Induction of apoptosis in human CRMM-1 cells at 40 uM measured after 48 hrs by DAPI/Annexin-V-PE staining based flow cytometry relative to control. The format is functional.

With `O=C(CCCc1ccccc1)c1c(OCCCN2CCNCC2)ccc2ccccc12`, the figures for the IC50 at 72 h in data set [1] and in data set [9] were 25.6 µM and 32.9 µM, respectively. Also, the IC50 in data set [2] was determined as 1 µM; in data set [4] it was 0.7 µM; in data set [8], 2.9 µM; in [10], 1.3 µM. Besides, the Kd in [3] came to 4.3 µM. In addition, the inhibition at 10 µM in data set [5] stood at 89.5%. The Activity in data set [6] was determined as 80%; in data set [7], 45%.

`CCCNCC(O)COc1ccccc1C(=O)CCc1ccccc1` (stereo not drawn) [PROPAFENONE]: the IC50 at 72 h was found to be 48.2 µM in [1] and 56 µM in data set [9]. In addition, the IC50 is 48.3 µM in data set [2]; 13.7 µM in data set [11]; 24.7 µM in [12]; 48.3 µM in [14]; 13.4 µM in data set [4]; 13.7 µM in data set [8]. Besides, the IC50 in data set [10] stood at 24.7 µM; in data set [20], 13.4 µM. In addition, the Activity stood at 58% in data set [13] and 80% in [21]. The outcome in [15], in data set [16], in data set [17] and in data set [19] was Active. Also, the inhibition at 10 µM in [5] is 56.9%. For the same compound, the cytotoxicity at 72 h, 20 µM in data set [18] amounted to 26%.
